Series [1] in a line: XRPD of freeze-dried solid dispersions and admixtures. In kind it is physicochemical. Particulars: as prepared, solid form of psilocybin (PY) in freeze-dried dispersion, physical mixture or starting material. Here is the method: The samples were prepared in silicon low background holders using light manual pressure to keep the sample surface flat and level with the reference surface of the sample holder. The single crystal Si low background holder has a circular recess (10 mm diameter and about 0.2 mm depth) that holds the sample.
The Rigaku Smart-Lab diffraction system used was configured for Bragg-Brentano reflection geometry using a line source X-ray beam. The Bragg-Brentano geometry was controlled by passive divergence and receiving slits with the sample itself acting as the focusing component for the optics. The figures were created using PlotMon V2.1.1.0.
High-resolution XRPD analysis was performed using Rigaku Smart-Lab diffraction system configured for Debye-Scherrer transmission geometry. The Debye-Scherrer convergent beam geometry utilizes a curved x-ray mirror to focus the incident beam through the sample and onto the detector plane. The axial divergence of the X-ray beam was controlled by 5.0° Soller slits in both the incident and diffracted beam paths.
Freeze-dried solid dispersions of Examples 1-5, and corresponding Reference Examples, were characterized using X-ray powder diffraction (XRPD).

Series [2] is described as follows: XRPD and mDSC characterization of spray dried solid dispersions (t=0). It counts as physicochemical. The settings on record: Characterization (t = 0). How it is done:
X-ray power diffraction (XRPD): XRPD patterns were collected on a Bruker AXS D2 diffractometer using Cu Kα radiation (30 kV, 10 mA), θ-θ geometry, using a LynxEye detector from 5-42° […].
The details of the data collection are: • Angular range: 5 to 42° 2θ • Step size: 0.024° 2θ • Collection time: 0.1 seconds per step.
Samples were run under ambient conditions and prepared as flat plate specimens using powder without grinding. Approximately 1-2 mg of the sample was lightly pressed on a silicon wafer to obtain a flat surface.
Modulated differential scanning calorimetry (mDSC): TOPEM® is a temperature modulated DSC method which differs from conventional DSC in allowing the total heat flow to be separated into reversing and non-reversing heat flow components. Such techniques help distinguish between processes or transitions that overlap or lie very close to one another. The glass transition temperature (Tg) was determined from the reversible heatflow component.
TOPEM® DSC data were collected on a Mettler DSC 3+ equipped with a 34 position auto-sampler. The instrument was calibrated for energy and temperature using certified indium. Typically, 3-5 mg of each sample, in a pin-holed aluminium pan, was heated at 2 K·min^−1 from 30° C. to 220° C. with a pulse height of 0.64 K and a pulse width 15-30 sec. A nitrogen purge at 50 mL·min^−1 was maintained over the sample. […]

Marks after values point to notes of the source that are not given here.

With `CN(C)CCc1c[nH]c2cccc(OP(=O)(O)O)c12` [Crystalline PY starting material, 3-(2-(dimethylamino)ethyl)-1H-indol-4-yl dihydrogen phosphate], the “XRPD Results” value in series [1] was “crystalline PY (methanol solvate)^a”; in series [1] (listed as crystalline psilocybin starting material) it was “crystalline psilocybin methanol solvate with a small quantity of Form B”.
Regarding `CN(C)CCc1c[nH]c2cccc(OP(=O)(O)O)c12` [Psilocybin (PY), 3-(2-(dimethylamino)ethyl)-1H-indol-4-yl dihydrogen phosphate], in series [2], the XRPD entry was “Amorphous”. Also, the Tg in series [2] (mDSC) was 161 °C.

These data come from patent US20240261306A1, “FORMULATIONS OF PSILOCYBIN” (CYBIN IRL LIMITED, priority 2021, published 2024).
